Results as given in ChEMBL document CHEMBL1201862, “PubChem BioAssay data set” (2004).
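Results reflect a 48-hour exposure of cells in 96-well plates to compound at five concentrations. GI50 marks 50% less growth.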 Activity calls are given as the source filed them. Rule as the data show it: active = GI50 up to about 1.1 µM and inactive = higher.

Assays:
Assay in all cases: DTP human tumour cell line panel, 48 h
CAKI-1 = test system: CAKI-1
CCRF-CEM = test system: CCRF-CEM
DU-145 = test system: DU-145
HOP-62 = test system: HOP-62
Hs-578T = test system: Hs-578T
K562 = test system: K562
KM12 = test system: KM12
MDA-MB-231 = test system: MDA-MB-231
MOLT-4 = test system: MOLT-4
NCI/ADR-RES = test system: NCI/ADR-RES
OVCAR-3 = test system: OVCAR-3
PC-3 = test system: PC-3
SF-295 = test system: SF-295
SF-539 = test system: SF-539
SNB-75 = test system: SNB-75
SR = test system: SR
SW-620 = test system: SW-620
TK-10 = test system: TK-10
U-251 = test system: U-251
UACC-257 = test system: UACC-257

For `Cc1ccc2[nH]c(=N/c3ccccc3C)/c(=N\c3ccccc3C)[nH]c2c1`, the GI50 (CAKI-1) was 27.9 µM (inactive), the GI50 (CCRF-CEM) was > 46.8 µM (inactive) and the GI50 (DU-145) was 41.1 µM (inactive). The GI50 (HOP-62) was 40.2 µM (inactive), the GI50 (Hs-578T) was 24.1 µM (inactive) and the GI50 (K562) was 23.8 µM (inactive). For the same molecule, the GI50 (KM12) was 17.6 µM (inactive), the GI50 (MDA-MB-231) was 17.1 µM (inactive) and the GI50 (MOLT-4) was > 100 µM (inactive). The GI50 (NCI/ADR-RES) was 30 µM (inactive), the GI50 (OVCAR-3) was 22.4 µM (inactive) and the GI50 (PC-3) was 31.3 µM (inactive). The GI50 (SF-295) was 21.4 µM (inactive), the GI50 (SF-539) was 37.2 µM (inactive) and the GI50 (SNB-75) was 34.7 µM (inactive). The GI50 (SR) was > 100 µM (inactive), the GI50 (SW-620) was 32.3 µM (inactive) and the GI50 (TK-10) was 38.5 µM (inactive). For the same molecule, the GI50 (U-251) was 26.1 µM (inactive) and the GI50 (UACC-257) was 25.6 µM (inactive).
For `OC(CC(O)(C(F)(F)Cl)C(F)(F)Cl)c1ccccc1` (stereo not given), the GI50 (CAKI-1) was > 10 µM (inactive), the GI50 (CCRF-CEM) was > 10 µM (inactive) and the GI50 (DU-145) was > 10 µM (inactive). The GI50 (HOP-62) was > 10 µM (inactive), the GI50 (Hs-578T) was > 10 µM (inactive) and the GI50 (K562) was > 10 µM (inactive). The GI50 (KM12) was > 10 µM (inactive), the GI50 (MDA-MB-231) was > 10 µM (inactive) and the GI50 (MOLT-4) was > 10 µM (inactive). For the same molecule, the GI50 (NCI/ADR-RES) was > 10 µM (inactive), the GI50 (OVCAR-3) was > 10 µM (inactive) and the GI50 (PC-3) was > 10 µM (inactive). The GI50 (SF-295) was > 10 µM (inactive), the GI50 (SF-539) was > 10 µM (inactive) and the GI50 (SNB-75) was > 10 µM (inactive). For the same molecule, the GI50 (SR) was > 10 µM (inactive), the GI50 (SW-620) was > 10 µM (inactive) and the GI50 (TK-10) was > 10 µM (inactive). The GI50 (U-251) was > 10 µM (inactive) and the GI50 (UACC-257) was > 10 µM (inactive).
In the case of `COc1ccc(-c2cc(-c3cc(F)c(Cl)cc3Cl)[nH]n2)cc1OC`, the GI50 (CAKI-1) is reported as 50.8 µM (inactive), the GI50 (CCRF-CEM) is reported as 11.6 µM (inactive) and the GI50 (DU-145) is reported as 33.1 µM (inactive). For the same molecule, the GI50 (HOP-62) was 39.9 µM (inactive), the GI50 (Hs-578T) was 43.7 µM (inactive) and the GI50 (K562) was 46 µM (inactive). For the same molecule, the GI50 (KM12) was 26.4 µM (inactive), the GI50 (MDA-MB-231) was 30.4 µM (inactive) and the GI50 (MOLT-4) was 14.5 µM (inactive). The GI50 (NCI/ADR-RES) was 25.1 µM (inactive), the GI50 (OVCAR-3) was 15.2 µM (inactive) and the GI50 (PC-3) was 21.2 µM (inactive). The GI50 (SF-295) was 18.3 µM (inactive), the GI50 (SF-539) was 15.9 µM (inactive) and the GI50 (SNB-75) was 23.3 µM (inactive). For the same molecule, the GI50 (SR) was 11.1 µM (inactive), the GI50 (SW-620) was 29.6 µM (inactive) and the GI50 (TK-10) was 43.4 µM (inactive). The GI50 (U-251) was 26.9 µM (inactive) and the GI50 (UACC-257) was 32.7 µM (inactive).
With `CC(=O)O[C@H]1C(=O)[C@@]2(C)[C@H]([C@H](OC(=O)c3ccc(F)cc3)[C@]3(O)C[C@H](OC(=O)[C@H](O)[C@@H](NC(=O)c4ccccc4)c4ccccc4)C(C)=C1C3(C)C)[C@]1(OC(C)=O)CO[C@@H]1C[C@@H]2O` the GI50 (CAKI-1) was 3.82 µM (inactive), the GI50 (CCRF-CEM) was 0.00819 µM (active) and the GI50 (DU-145) was 0.0395 µM (active). For the same molecule, the GI50 (HOP-62) was 0.126 µM (active), the GI50 (Hs-578T) was 0.00536 µM (active) and the GI50 (K562) was 0.00859 µM (active). The GI50 (KM12) was 0.0113 µM (active), the GI50 (MDA-MB-231) was 0.219 µM (active) and the GI50 (MOLT-4) was 0.0146 µM (active). The GI50 (NCI/ADR-RES) was 9.84 µM (inactive), the GI50 (OVCAR-3) was 0.00557 µM (active) and the GI50 (PC-3) was 0.0112 µM (active). The GI50 (SF-295) was 0.168 µM (active), the GI50 (SF-539) was 0.0102 µM (active) and the GI50 (SNB-75) was 0.0189 µM (active). For the same molecule, the GI50 (SR) was 0.0108 µM (active), the GI50 (SW-620) was 0.0065 µM (active) and the GI50 (TK-10) was 0.416 µM (active). For the same molecule, the GI50 (U-251) was 0.00857 µM (active) and the GI50 (UACC-257) was 0.0399 µM (active).
`O=C1C=CC(=O)c2c1ccc1c3ccccc3n(Cc3cccc([N+](=O)[O-])c3)c21` was tested, and the GI50 (CAKI-1) was 14.7 µM (inactive), the GI50 (CCRF-CEM) was 8.36 µM (inactive) and the GI50 (DU-145) was > 100 µM (inactive). The GI50 (HOP-62) was > 100 µM (inactive), the GI50 (Hs-578T) was > 71.9 µM (inactive) and the GI50 (K562) was 6.92 µM (inactive). The GI50 (KM12) was > 100 µM (inactive), the GI50 (MDA-MB-231) was 24.2 µM (inactive) and the GI50 (MOLT-4) was 8.65 µM (inactive). The GI50 (NCI/ADR-RES) was 37.8 µM (inactive), the GI50 (OVCAR-3) was 17.1 µM (inactive) and the GI50 (PC-3) was 30.1 µM (inactive). The GI50 (SF-295) was > 100 µM (inactive), the GI50 (SF-539) was > 54 µM (inactive) and the GI50 (SNB-75) was > 78.2 µM (inactive). For the same molecule, the GI50 (SR) was 12.8 µM (inactive), the GI50 (SW-620) was 11.5 µM (inactive) and the GI50 (TK-10) was 20 µM (inactive). For the same molecule, the GI50 (U-251) was > 89.5 µM (inactive) and the GI50 (UACC-257) was 23 µM (inactive).
In the case of `O=C1C(Cl)=C(Nc2ccc(S(=O)(=O)O)cc2)C(=O)c2ccccc21`, the GI50 (CAKI-1) is reported as 39.5 µM (inactive), the GI50 (CCRF-CEM) is reported as 26.7 µM (inactive) and the GI50 (DU-145) is reported as 16.3 µM (inactive). The GI50 (HOP-62) was 36.2 µM (inactive), the GI50 (Hs-578T) was 24 µM (inactive) and the GI50 (K562) was 28.2 µM (inactive). The GI50 (KM12) was 22 µM (inactive), the GI50 (MDA-MB-231) was 60.7 µM (inactive) and the GI50 (MOLT-4) was 42.1 µM (inactive). The GI50 (NCI/ADR-RES) was > 100 µM (inactive), the GI50 (OVCAR-3) was 20.8 µM (inactive) and the GI50 (PC-3) was 23 µM (inactive). The GI50 (SF-295) was 33.6 µM (inactive), the GI50 (SF-539) was 19.9 µM (inactive) and the GI50 (SNB-75) was 67.8 µM (inactive). The GI50 (SR) was 32.6 µM (inactive), the GI50 (SW-620) was 22 µM (inactive) and the GI50 (TK-10) was 22.1 µM (inactive). The GI50 (U-251) was 36.8 µM (inactive) and the GI50 (UACC-257) was 40 µM (inactive).
For `CC(C)(C)c1cc2c(OC/C=C/c3ccccc3)c(c1)Cc1cc(C(C#N)(OC/C=C/c3ccccc3)OC/C=C/c3ccccc3)cc(c1OC/C=C\c1ccccc1)Cc1cc(C(C)(C)C)cc(c1OC/C=C/c1ccccc1)Cc1cc(C(C#N)(OC/C=C\c3ccccc3)OC/C=C/c3ccccc3)cc(c1OC/C=C\c1ccccc1)C2` (stereo not given), the GI50 (CAKI-1) was > 100 µM (inactive), the GI50 (CCRF-CEM) was > 100 µM (inactive) and the GI50 (DU-145) was > 100 µM (inactive). For the same molecule, the GI50 (HOP-62) was > 100 µM (inactive), the GI50 (Hs-578T) was > 100 µM (inactive) and the GI50 (K562) was > 100 µM (inactive). The GI50 (KM12) was > 100 µM (inactive), the GI50 (MDA-MB-231) was 30.4 µM (inactive) and the GI50 (MOLT-4) was > 100 µM (inactive). The GI50 (NCI/ADR-RES) was > 100 µM (inactive), the GI50 (OVCAR-3) was > 100 µM (inactive) and the GI50 (PC-3) was > 100 µM (inactive). The GI50 (SF-295) was > 100 µM (inactive), the GI50 (SF-539) was > 100 µM (inactive) and the GI50 (SNB-75) was > 100 µM (inactive). The GI50 (SR) was 20.7 µM (inactive), the GI50 (SW-620) was > 100 µM (inactive) and the GI50 (TK-10) was 1.95 µM (inactive). The GI50 (U-251) was > 100 µM (inactive) and the GI50 (UACC-257) was > 100 µM (inactive).
